Test results published in US12077503B2, “Substituted cyclic amides and their use as herbicides” (FMC CORPORATION, priority 2015, dated 2024).

Assays:
Assay type in all cases: in vivo
Settings in all cases: scale 0 to 100
[1] = test system: foxtail, green (green foxtail, Setaria viridis); assay: Test D preemergence
How it was run: (§1)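 Planted in silt loam, then treated preemergence with test compound formulated in a surfactant-containing non-phytotoxic solvent. Held ~21 d under controlled growth conditions. Scored visually against controls on a 0–100 scale.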

[2] = test system: Russian thistle (Salsola kali); assay: Test D preemergence
How it was run: as §1

[3] = test system: chickweed (common chickweed, Stellaria media); assay: Test D preemergence
How it was run: as §1

[4] = test system: Galium (catchweed bedstraw, Galium aparine); assay: Test D preemergence
How it was run: as §1

[5] = test system: ryegrass, Italian (Italian ryegrass, Lolium multiflorum); assay: Test D preemergence
How it was run: as §1

Kochia (Kochia scoparia) = assay: Test D preemergence
How it was run: as §1

[6] = test system: pigweed (Amaranthus retroflexus); assay: Test D preemergence
How it was run: as §1

[7] = test system: buckwheat, wild (wild buckwheat, Polygonum convolvulus); assay: Test D preemergence
How it was run: as §1

[8] = test system: wheat, winter (winter wheat, Triticum aestivum); assay: Test D preemergence
How it was run: as §1

[9] = test system: mustard, wild (wild mustard, Sinapis arvensis); assay: Test D preemergence
How it was run: as §1

[10] = test system: radish, wild (wild radish, Raphanus raphanistrum); assay: Test D preemergence
How it was run: as §1

[11] = test system: dayflower, VA (Virginia dayflower, Commelina virginica); assay: Test E preemergence
Text: (§2) Seeds of plant species selected from corn (Zea mays), soybean (Glycine max), velvetleaf (Abutilon theophrasti), lambsquarters (Chenopodium album), poinsettia, wild (wild poinsettia, Euphorbia heterophylla), pigweed, palmer (palmer pigweed, Amaranthus palmeri), waterhemp (common waterhemp, Amaranthus rudis), surinam grass (Brachiaria decumbens), crabgrass, large (large crabgrass, Digitaria sangumnalis), crabgrass, Brazil (Brazilian crabgrass, Digitaria horizontalis), Panicum, fall (fall Panicum, Panicum dichotomiflorum), foxtail, giant (giant foxtail, Setaria faberii), foxtail, green (green foxtail, Setaria viridis), goosegrass (Eleusine indica), johnsongrass (Sorghum halepense), ragweed (common ragweed, Ambrosia elatior), barnyardgrass (Echinochloa crus-galli), sandbur (southern sandbur, Cenchrus echinatus), arrowleaf Sida (Sida rhombifolia), ryegrass, Italian (Italian ryegrass, Lolium multiflorum), dayflower, VA (Virginia dayflower, Commelina virginica), field bindweed (Convolvulus arvensis), morningglory (Ipomoea coccinea), nightshade (eastern black nightshade, Solanum ptycanthum), Kochia (Kochia scoparia), nutsedge, yellow (yellow nutsedge, Cyperus esculentus), horseweed (Conyza canadensis), and beggarticks (hairy beggarticks, Bidens pilosa), were planted into a silt loam soil and treated preemergence with test chemicals formulated in a non-phytotoxic solvent mixture which included a surfactant.
(§3) At the same time, plants selected from these crop and weed species were planted in pots containing Sunshine Redi-Earth planting medium comprising spaghnum peat moss, vermiculite, starter nutrients and dolomitic limestone and treated with postemergence applications of a test chemical formulated in the same manner. Plants ranged in height from 2 to 18 cm (1- to 4-leaf stage) for postemergence treatments. Treated plants and controls were maintained in a greenhouse for 14 to 21 d, after which time all species were compared to controls and visually evaluated. Plant response ratings, summarized in Table E, are based on a scale of 0 to 100 where 0 is no effect and 100 is complete control. A dash (-) response means no test result.

corn (Zea mays) = assay: Test E preemergence
Text: as §2, §3

[12] = test system: johnsongrass (Sorghum halepense); assay: Test E preemergence
Text: as §2, §3

soybean (Glycine max) = assay: Test E preemergence
Text: as §2, §3

[13] = test system: lambsquarters (Chenopodium album); assay: Test E preemergence
Text: as §2, §3

CN1CC(c2ccc(C(F)(F)F)cc2)C(C(=O)Nc2ccccc2S(C)(=O)=O)C1=O (centres unmarked) [Compound 624]
5: Plant response rating: Kochia (Kochia (Kochia scoparia); 62 g ai/ha) | Plant response rating: Wheat, Winter ([8]; 125 g ai/ha)
90: Plant response rating: Foxtail, Green ([1]; 125 g ai/ha)
95: Plant response rating: Foxtail, Green ([1]; 250 g ai/ha) | Plant response rating: Pigweed ([6]; 125 g ai/ha)
35: Plant response rating: Pigweed ([6]; 31 g ai/ha) | Plant response rating: Johnsongrass ([12]; 125 g ai/ha)
10: Plant response rating: Russian Thistle ([2]; 125 g ai/ha) | Plant response rating: Wheat, Winter ([8]; 250 g ai/ha) | Plant response rating: Corn (corn (Zea mays); 125 g ai/ha) | Plant response rating: Soybean (soybean (Glycine max); 62 g ai/ha) | Plant response rating: Soybean (soybean (Glycine max); 250 g ai/ha)
98: Plant response rating: Pigweed ([6]; 250 g ai/ha)
0: Plant response rating: Russian Thistle ([2]; 31 g ai/ha) | Plant response rating: Galium ([4]; 31 g ai/ha) | Plant response rating: Galium ([4]; 62 g ai/ha) | Plant response rating: Galium ([4]; 125 g ai/ha) | Plant response rating: Galium ([4]; 250 g ai/ha) | Plant response rating: Ryegrass, Italian ([5]; 31 g ai/ha) | Plant response rating: Ryegrass, Italian ([5]; 62 g ai/ha) | Plant response rating: Kochia (Kochia (Kochia scoparia); 31 g ai/ha) | Plant response rating: Buckwheat, Wild ([7]; 31 g ai/ha) | Plant response rating: Buckwheat, Wild ([7]; 62 g ai/ha) | Plant response rating: Wheat, Winter ([8]; 31 g ai/ha) | Plant response rating: Wheat, Winter ([8]; 62 g ai/ha) | Plant response rating: Radish, Wild ([10]; 31 g ai/ha) | Plant response rating: Radish, Wild ([10]; 125 g ai/ha) | Plant response rating: Dayflower, VA ([11]; 31 g ai/ha) | Plant response rating: Dayflower, VA ([11]; 62 g ai/ha) | Plant response rating: Corn (corn (Zea mays); 31 g ai/ha) | Plant response rating: Corn (corn (Zea mays); 62 g ai/ha) | Plant response rating: Johnsongrass ([12]; 31 g ai/ha) | Plant response rating: Johnsongrass ([12]; 62 g ai/ha) | Plant response rating: Soybean (soybean (Glycine max); 31 g ai/ha) | Plant response rating: Lambsquarters ([13]; 31 g ai/ha) | Plant response rating: Lambsquarters ([13]; 62 g ai/ha)
50: Plant response rating: Foxtail, Green ([1]; 62 g ai/ha) | Plant response rating: Russian Thistle ([2]; 250 g ai/ha) | Plant response rating: Buckwheat, Wild ([7]; 250 g ai/ha) | Plant response rating: Dayflower, VA ([11]; 250 g ai/ha) | Plant response rating: Lambsquarters ([13]; 125 g ai/ha)
70: Plant response rating: Mustard, Wild ([9]; 250 g ai/ha)
30: Plant response rating: Russian Thistle ([2]; 62 g ai/ha) | Plant response rating: Mustard, Wild ([9]; 62 g ai/ha) | Plant response rating: Dayflower, VA ([11]; 125 g ai/ha)
20: Plant response rating: Corn (corn (Zea mays); 250 g ai/ha) | Plant response rating: Soybean (soybean (Glycine max); 125 g ai/ha)
40: Plant response rating: Foxtail, Green ([1]; 31 g ai/ha)
75: Plant response rating: Radish, Wild ([10]; 250 g ai/ha)
80: Plant response rating: Pigweed ([6]; 62 g ai/ha)
15: Plant response rating: Chickweed ([3]; 31 g ai/ha) | Plant response rating: Kochia (Kochia (Kochia scoparia); 125 g ai/ha) | Plant response rating: Buckwheat, Wild ([7]; 125 g ai/ha) | Plant response rating: Mustard, Wild ([9]; 31 g ai/ha)
25: Plant response rating: Ryegrass, Italian ([5]; 125 g ai/ha) | Plant response rating: Ryegrass, Italian ([5]; 250 g ai/ha)
85: Plant response rating: Chickweed ([3]; 250 g ai/ha) | Plant response rating: Kochia (Kochia (Kochia scoparia); 250 g ai/ha) | Plant response rating: Lambsquarters ([13]; 250 g ai/ha)
60: Plant response rating: Chickweed ([3]; 125 g ai/ha)

CN1CC(c2cccc(C(F)(F)F)c2)C(C(=O)Nc2ccccc2S(C)(=O)=O)C1=O (centres unmarked) [Compound 637]
40: Plant response rating: Wheat, Winter ([8]; 62 g ai/ha)
98: Plant response rating: Pigweed ([6]; 250 g ai/ha)
90: Plant response rating: Pigweed ([6]; 62 g ai/ha) | Plant response rating: Radish, Wild ([10]; 250 g ai/ha) | Plant response rating: Lambsquarters ([13]; 125 g ai/ha)
5: Plant response rating: Chickweed ([3]; 62 g ai/ha) | Plant response rating: Kochia (Kochia (Kochia scoparia); 31 g ai/ha) | Plant response rating: Wheat, Winter ([8]; 31 g ai/ha) | Plant response rating: Mustard, Wild ([9]; 31 g ai/ha) | Plant response rating: Mustard, Wild ([9]; 62 g ai/ha)
30: Plant response rating: Galium ([4]; 125 g ai/ha)
25: Plant response rating: Johnsongrass ([12]; 125 g ai/ha) | Plant response rating: Soybean (soybean (Glycine max); 125 g ai/ha)
85: Plant response rating: Kochia (Kochia (Kochia scoparia); 250 g ai/ha)
0: Plant response rating: Russian Thistle ([2]; 31 g ai/ha) | Plant response rating: Russian Thistle ([2]; 62 g ai/ha) | Plant response rating: Chickweed ([3]; 31 g ai/ha) | Plant response rating: Galium ([4]; 31 g ai/ha) | Plant response rating: Ryegrass, Italian ([5]; 31 g ai/ha) | Plant response rating: Ryegrass, Italian ([5]; 62 g ai/ha) | Plant response rating: Kochia (Kochia (Kochia scoparia); 62 g ai/ha) | Plant response rating: Buckwheat, Wild ([7]; 31 g ai/ha) | Plant response rating: Dayflower, VA ([11]; 31 g ai/ha) | Plant response rating: Dayflower, VA ([11]; 62 g ai/ha) | Plant response rating: Dayflower, VA ([11]; 125 g ai/ha) | Plant response rating: Corn (corn (Zea mays); 31 g ai/ha) | Plant response rating: Corn (corn (Zea mays); 62 g ai/ha) | Plant response rating: Johnsongrass ([12]; 31 g ai/ha) | Plant response rating: Johnsongrass ([12]; 62 g ai/ha) | Plant response rating: Soybean (soybean (Glycine max); 31 g ai/ha) | Plant response rating: Lambsquarters ([13]; 62 g ai/ha)
80: Plant response rating: Foxtail, Green ([1]; 62 g ai/ha) | Plant response rating: Buckwheat, Wild ([7]; 250 g ai/ha) | Plant response rating: Lambsquarters ([13]; 250 g ai/ha)
95: Plant response rating: Foxtail, Green ([1]; 125 g ai/ha)
100: Plant response rating: Foxtail, Green ([1]; 250 g ai/ha) | Plant response rating: Pigweed ([6]; 125 g ai/ha)
10: Plant response rating: Russian Thistle ([2]; 125 g ai/ha) | Plant response rating: Galium ([4]; 250 g ai/ha) | Plant response rating: Buckwheat, Wild ([7]; 62 g ai/ha) | Plant response rating: Soybean (soybean (Glycine max); 62 g ai/ha)
75: Plant response rating: Foxtail, Green ([1]; 31 g ai/ha) | Plant response rating: Chickweed ([3]; 250 g ai/ha) | Plant response rating: Wheat, Winter ([8]; 250 g ai/ha)
65: Plant response rating: Chickweed ([3]; 125 g ai/ha)
15: Plant response rating: Buckwheat, Wild ([7]; 125 g ai/ha) | Plant response rating: Mustard, Wild ([9]; 125 g ai/ha) | Plant response rating: Mustard, Wild ([9]; 250 g ai/ha)
20: Plant response rating: Galium ([4]; 62 g ai/ha) | Plant response rating: Ryegrass, Italian ([5]; 125 g ai/ha) | Plant response rating: Ryegrass, Italian ([5]; 250 g ai/ha) | Plant response rating: Pigweed ([6]; 31 g ai/ha) | Plant response rating: Radish, Wild ([10]; 62 g ai/ha) | Plant response rating: Radish, Wild ([10]; 125 g ai/ha) | Plant response rating: Dayflower, VA ([11]; 250 g ai/ha)
35: Plant response rating: Kochia (Kochia (Kochia scoparia); 125 g ai/ha) | Plant response rating: Corn (corn (Zea mays); 125 g ai/ha) | Plant response rating: Soybean (soybean (Glycine max); 250 g ai/ha)
70: Plant response rating: Corn (corn (Zea mays); 250 g ai/ha)
50: Plant response rating: Russian Thistle ([2]; 250 g ai/ha)
60: Plant response rating: Wheat, Winter ([8]; 125 g ai/ha) | Plant response rating: Johnsongrass ([12]; 250 g ai/ha)
